Reference: patent US20190119282A1, “IMIDAZOPYRIDAZINES USEFUL AS INHIBITORS OF THE PAR-2 SIGNALING PATHWAY” (Vertex Pharmaceuticals Incorporated, priority 2013, published 2019)

How the values were obtained:
[1] = target: T1, PAR2 (HT-29 cells, SLIGKV activation) (Homo sapiens, UniProt P55085); assay: Ca FLIPR TETRA assay, ANTAGONIST mode, stimulation with 8 μM SLIGKV; format: cell-based; settings: for IC50: HT-29 cells, stimulation with 8 μM SLIGKV
T1 construct: host or cells: HT-29 cells
T1 sequence (P55085 26-397): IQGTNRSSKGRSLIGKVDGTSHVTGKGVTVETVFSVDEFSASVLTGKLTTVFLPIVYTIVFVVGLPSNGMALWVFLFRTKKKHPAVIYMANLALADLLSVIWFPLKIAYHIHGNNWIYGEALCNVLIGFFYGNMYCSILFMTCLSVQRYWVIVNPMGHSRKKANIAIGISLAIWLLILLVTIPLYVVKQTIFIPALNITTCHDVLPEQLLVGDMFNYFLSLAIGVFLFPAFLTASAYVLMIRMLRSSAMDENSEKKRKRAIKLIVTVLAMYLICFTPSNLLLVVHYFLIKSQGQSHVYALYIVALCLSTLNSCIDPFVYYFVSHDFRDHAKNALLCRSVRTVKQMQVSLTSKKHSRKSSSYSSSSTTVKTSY
Protocol: (§1) Example 60: Protocol for Testing PAR2 Compounds in ANTAGONIST Mode Using the Ca FLIPR^TETRA Assay (384 Well)
(§2) 23000 HT-29 cells (ATCC# HTB-38) were plated in 384-well black, transparent-flat bottom plates and incubated in 25 uL of 1% FBS/McCoy's media ON at 37° C. under an atmosphere of 5% CO2. The following day, 25 uL FLIPR calcium 5 Molecular Devices assay reagent (Cat: R-8186) was added. Plates were incubated at 37° C. and r. t. for 45 min and 15 min, respectively. Compounds dilutions were prepared in 100% DMSO using a Biomek FX and diluted 20-fold in HBSS and then 5.5 uL was added directly to the cells by the FLIPR^TETRA (10× dilution) using FLIPR Tetra Pipette tips, black, non-sterile, 384 Molecular Devices (Cat: 9000-0764).
(§3) A first read was performed to determine whether the test compounds on their own can activate Ca2+ responses.
(§4) The cells were incubated with the compounds for 30 min at r. t. and then read in ANTAGONIST mode in the same plate by stimulating with 6.2 uL of a fixed concentration of the activator: final concentrations: 8 μM SLIGKV, 1 U/mL Thrombin, 3.1 U/mL trypsin, or 0.6 μM UTP.

[2] = test system: Thrombin-stimulated Ca2+ response in HT-29 cells; assay: Ca FLIPR TETRA assay, ANTAGONIST mode, stimulation with 1 U/mL Thrombin; format: cell-based, human; settings: for IC50: Homo sapiens, HT-29 cells, stimulation with 1 U/mL Thrombin
Protocol: as §1, §2, §3, §4

[3] = target: T2, PAR2 (HT-29 cells, trypsin activation) (Homo sapiens, UniProt P55085); assay: Ca FLIPR TETRA assay, ANTAGONIST mode, stimulation with 3.1 U/mL trypsin; format: cell-based; settings: HT-29 cells, stimulation with 3.1 U/mL trypsin
T2 construct: host or cells: HT-29 cells
T2 sequence (P55085 26-397): T1 sequence (P55085 26-397)
Protocol: as §1, §2, §3, §4

[4] = test system: UTP-stimulated Ca2+ response in HT-29 cells; assay: Ca FLIPR TETRA assay, ANTAGONIST mode, stimulation with 0.6 μM UTP; format: cell-based, human; settings: for IC50: Homo sapiens, HT-29 cells, stimulation with 0.6 μM UTP; for UTP % @ concentration: @ 50 (μM)
Protocol: as §1, §2, §3, §4

Structure (SMILES)	IC50 ([1]; antagonist mode)	IC50 ([2]; antagonist mode)	IC50 ([3]; antagonist mode)	IC50 ([4]; antagonist mode)	IC50 [1]	IC50 [2]	IC50 [3]	IC50 [4]	SLIGKV % @ concentration ([1]; @ 0.069 (μM))	Thrombin % @ concentration ([2]; @ 50 (μM))	UTP % @ concentration [4]
COC(=O)[C@H]1CC[C@H](C(=O)N2CCN(C(=O)c3cn4nc(-c5ccc(Cl)cc5)cc(C(C)C)c4n3)C(C)(C)C2)CC1 [Compound I-546]	1.8 nM	> 1000 nM	1.6 nM	> 1000 nM	–	–	–	–	–	–	–
CCc1cc(-c2ccc(F)cc2)nn2cc(C(=O)N3CCN(C(=O)CC4CCOCC4)[C@@H](C)C3)nc12 [Compound I-164]	–	–	–	–	200 nM	54000 nM	2000 nM	54000 nM	–	–	–
C[C@H]1CN(C(=O)c2cn3nc(-c4ccc(F)cc4)cc(C(F)(F)F)c3n2)CCN1C(=O)Oc1ccccc1 [Compound I-83]	–	–	–	–	–	> 50000 nM	> 50000 nM	> 50000 nM	46% @ 0.069	–	–
CC(C)c1cc(-c2ccc(F)c(Cl)c2)nn2cc(C(=O)N3CCN(C(=O)[C@H]4C[C@](O)(C(F)(F)F)C4)CC3(C)C)nc12 [Compound I-500]	0.3 nM	> 1000 nM	0.4 nM	> 1000 nM	–	–	–	–	–	–	–
Cc1ccc(-c2cc(C(C)C)c3nc(C(=O)N4CCN(C(=O)C5CC(C)(O)C5)CC4(C)C)cn3n2)cc1 (centres unmarked) [Compound I-333]	3.2 nM	> 1000 nM	3.8 nM	> 1000 nM	–	–	–	–	–	–	–
CC(C)(C)c1cc(C2CCC(F)(F)CC2)nn2cc(C(=O)N3CCN(C(=O)[C@H]4C[C@@H](C(=O)O)C4)CC3(C)C)nc12 [Compound I-516]	39.5 nM	> 1000 nM	92 nM	> 1000 nM	–	–	–	–	–	–	–
CC[C@@H](O)C(=O)N1CCN(C(=O)c2cn3nc(-c4ccc(F)cc4)cc(C(C)C)c3n2)C[C@@H]1C [Compound I-118]	–	–	–	–	16 nM	31000 nM	1000 nM	27000 nM	–	–	–
CC(C)(O)CC(=O)N1CCN(C(=O)c2cn3nc(-c4ccc(F)cc4)cc(C(C)(C)C)c3n2)C(C)(C)C1 [Compound I-289]	1.5 nM	430 nM	2.5 nM	540 nM	–	–	–	–	–	–	–
Cc1cc(-c2cc(C(C)C)c3nc(C(=O)N4CCN(C)C(=O)C4(C)C)cn3n2)ccc1F [Compound I-440]	8.1 nM	> 1000 nM	14 nM	> 1000 nM	–	–	–	–	–	–	–
CC(C)(C)c1cc(C2CCC(F)(F)CC2)nn2cc(C(=O)N3CCN(c4cc[nH]n4)C(=O)C3(C)C)nc12 [Compound I-474]	2.4 nM	> 1000 nM	20 nM	> 1000 nM	–	–	–	–	–	–	–
Cc1cccc(-c2cc(C(C)(C)C)c3nc(C(=O)N4CCN(C(=O)c5nnc(C)o5)CC4(C)C)cn3n2)c1 [Compound I-410]	6.3 nM	950 nM	8.2 nM	> 1000 nM	–	–	–	–	–	–	–
Cc1nc(C(=O)N2CCN(C(=O)c3cn4nc(-c5ccc(C)c(F)c5)cc(C(C)C)c4n3)C(C)(C)C2)c[nH]1 [Compound I-376]	2 nM	> 1000 nM	3.2 nM	> 1000 nM	–	–	–	–	–	–	–
Cc1ccc(-c2cc(C(C)C)c3nc(C(=O)N4CCN(C(=O)C(C)(C)O)CC4(C)C)cn3n2)cc1F [Compound I-251]	5.8 nM	> 1000 nM	16.6 nM	> 1000 nM	–	–	–	–	–	–	–
Cc1cc(-c2cc(C(C)C)c3nc(C(=O)N4CCNC(=O)C4(C)C)cn3n2)ccc1Cl [Compound I-507]	3.1 nM	> 1000 nM	4.9 nM	> 1000 nM	–	–	–	–	–	–	–
Cc1ccc(-c2cc(C(C)(C)C)c3nc(C(=O)N4CCN(C(=O)c5ccn[nH]5)CC4(C)C)cn3n2)cc1 [Compound I-394]	0.9 nM	> 1000 nM	1.1 nM	> 1000 nM	–	–	–	–	–	–	–
CC(C)(C)c1cc(-c2ccc(Cl)c(F)c2)nn2cc(C(=O)N3CCN(C(=O)[C@H]4C[C@@](C)(O)C4)CC3(C)C)nc12 [Compound I-469]	0.2 nM	8840 nM	0.2 nM	11000 nM	–	–	–	–	–	–	–
CC(C)(C)c1cc(-c2ccc(F)cc2)nn2cc(C(=O)N3CCNCC3(C)C)nc12 [Compound I-205]	310 nM	> 1000 nM	580 nM	> 1000 nM	–	–	–	–	–	–	–
CC(C)c1cc(-c2ccc(F)cc2)nn2cc(C(=O)N3CCN(C(=O)C4CC(O)(C(F)(F)F)C4)CC3(C)C)nc12 (centres unmarked) [Compound I-240]	0.1 nM	> 1000 nM	0.3 nM	> 1000 nM	–	–	–	–	–	–	–
O=C(c1cn2nc(-c3ccc(F)cc3)cc(C(F)(F)F)c2n1)N1CCCCCC1 [Compound I-7, Azepan-1-yl-[6-(4-fluorophenyl)-8-(trifluoromethyl)imidazo[1,2-b]pyridazine-2-yl]methanone]	–	–	–	–	89 nM	> 50000 nM	–	> 50000 nM	–	–	–
CC(C)(C)OC(=O)NC1CCN(C(=O)c2cn3nc(-c4ccc(F)cc4)cc(C(F)(F)F)c3n2)CC1 [Compound I-74]	–	–	–	–	480 nM	> 50000 nM	–	–	–	–	62% @ 50
CN(C(=O)OC(C)(C)C)C1CCN(C(=O)c2cn3nc(-c4ccc(F)cc4)cc(C(F)(F)F)c3n2)CC1 [Compound I-77]	–	–	–	–	680 nM	> 50000 nM	–	> 50000 nM	–	–	–

Continued, in another order:

IC50 ([1]; antagonist mode)	IC50 ([2]; antagonist mode)	IC50 ([3]; antagonist mode)	IC50 ([4]; antagonist mode)	IC50 [1]	IC50 [2]	IC50 [3]	IC50 [4]	SLIGKV % @ concentration ([1]; @ 0.069 (μM))	Structure (SMILES)	Thrombin % @ concentration ([2]; @ 50 (μM))	UTP % @ concentration [4]
–	–	–	–	44 nM	–	150 nM	–	–	CC(C)c1cc(-c2ccc(F)cc2)nn2cc(C(=O)N3CCN(C(=O)OC(C)(C)C)[C@@H](C)C3)nc12 [Compound I-96]	52% @ 50	66% @ 50
–	–	–	–	37 nM	11000 nM	280 nM	11000 nM	–	C[C@H]1CN(C(=O)c2cn3nc(-c4ccc(F)cc4)cc(C(F)(F)F)c3n2)CCN1C(=O)[C@H](N)CC1CCCCC1 [Compound I-16, (2R)-2-amino-3-cyclohexyl-1-[(2S)-4-[6-(4-fluorophenyl)-8-(trifluoromethyl)imidazo[1,2-b]pyridazine-2-carbonyl]-2-methyl-piperazin-1-yl]propan-1-one]	–	–
–	–	–	–	200 nM	43000 nM	3000 nM	48000 nM	–	C[C@H]1CN(C(=O)c2cn3nc(-c4ccc(F)cc4)cc(C(F)(F)F)c3n2)CCN1C(=O)C(O)c1cccnc1 (some centres unmarked) [Compound I-100]	–	–
0.9 nM	> 1000 nM	1.3 nM	> 1000 nM	–	–	–	–	–	CC(C)(C)c1cc(-c2ccc(F)cc2)nn2cc(C(=O)N3CCN(C#N)C(=O)C3(C)C)nc12 [Compound I-234]	–	–
–	–	–	–	84 nM	7700 nM	490 nM	9200 nM	–	C[C@H]1CN(C(=O)c2cn3nc(-c4ccc(F)cc4)cc(C(F)(F)F)c3n2)CCN1C(=O)OCc1cccnc1 [Compound I-12, 3-Pyridylmethyl (2S)-4-[6-(4-fluorophenyl)-8-(trifluoromethyl)-imidazo-[1,2-b]pyridazine-2-carbonyl]-2-methyl-piperazine-1-carboxylate]	–	–
2.3 nM	> 1000 nM	1.8 nM	> 1000 nM	–	–	–	–	–	Cc1ccc(-c2cc(C(C)(C)C)c3nc(C(=O)N4CCNC(=O)C4(C)C)cn3n2)cc1F [Compound I-298]	–	–
–	–	–	–	1400 nM	> 50000 nM	6400 nM	> 50000 nM	–	CC(C)c1cc(-c2ccc(F)cc2)nn2cc(C(=O)N3CCN(C(=O)C4(N)CC4)[C@@H](C)C3)nc12 [Compound I-154]	–	–
1.8 nM	> 1000 nM	3 nM	> 1000 nM	–	–	–	–	–	CC(=O)N1CCN(C(=O)c2cn3nc(-c4ccc(F)cc4)cc(C(C)(C)C)c3n2)C(C)(C)C1 [Compound I-513]	–	–
21.1 nM	> 1000 nM	22.5 nM	> 1000 nM	–	–	–	–	–	Cc1nnc(C(=O)N2CCN(C(=O)c3cn4nc(-c5ccc(F)cc5)cc(C(C)C)c4n3)C(C)(C)C2)o1 [Compound I-324]	–	–
0.8 nM	> 1000 nM	1.1 nM	> 1000 nM	–	–	–	–	–	COC(=O)C1(C)CCC(C(=O)N2CCN(C(=O)c3cn4nc(-c5ccc(Cl)cc5)cc(C(C)(C)C)c4n3)C(C)(C)C2)CC1 (centres unmarked) [Compound I-532]	–	–
1.1 nM	> 1000 nM	1.5 nM	> 1000 nM	–	–	–	–	–	Cc1ccc(-c2cc(C(C)(C)C)c3nc(C(=O)N4CCN(c5cn[nH]c5)C(=O)C4(C)C)cn3n2)cc1F [Compound I-365]	–	–
